Patent US12281149B2, “Modulators of G-protein coupled receptors” (priority 2021, dated 2025)
*1 amine or outer side, *2 acyl side, *3 side chain or, on linkers, in order; H or OH if unused. Where a SMILES comes first, the peptide text is derived from it. Side-chain parts run from the residue outwards. [ ]: non-standard residue; d: D form. The star is where a group is joined. Isobutyryl(2-(3-CN-5-F-Ph)) = CC(C)(C(=O)*)c1cc(F)cc(C#N)c1; C20 diacid = O=C(O)CCCCCCCCCCCCCCCCCCC(=O)*; γGlu = O=C(O)[C@H](CCC(=O)[*:2])N[*:1]; X71 = COc1cc(F)cc(C(C)(C)C(=O)*)c1; X38 = CC(C)(C(=O)*)c1cc(O)cc(F)c1; β3hE = N[C@@H](CCC(=O)O)CC(=O)O; β3hD = NC(CC(=O)O)CC(=O)O; AEEA = NCCOCCOCC(=O)O; Aib = CC(C)(N)C(=O)O; βAla = NCCC(=O)O

Assays:
Assay type in all cases: cell-based
GLP-1 receptor [1] = target: T1, GLP-1 receptor (Homo sapiens, UniProt P43220); assay: PathHunter β-arrestin assay, GLP-1 receptor; design: host or cells: PathHunter CHO-K1 GLP1R β-Arrestin Cell Line; conditions: β-arrestin-2 recruitment, PathHunter CHO-K1 GLP1R β-Arrestin Cell Line, 90 min at 37° C.; normalized to GLP-1; read-out: GLP-1R β Arrestin EC50
GIP receptor [2] = target: T2, GIP receptor (Homo sapiens, UniProt P48546); assay: HitHunter cAMP assay, GIP receptor; conditions: for EC50: CHO cells stably expressing GIP receptor, cAMP accumulation, 30 min, read-out: EC50 GIP-1R; for Emax: CHO cells, cAMP, normalized to maximum signal from GIP (high) and DMSO (low), read-out: Emax GIP-1R
T2 sequence (P48546 22-466): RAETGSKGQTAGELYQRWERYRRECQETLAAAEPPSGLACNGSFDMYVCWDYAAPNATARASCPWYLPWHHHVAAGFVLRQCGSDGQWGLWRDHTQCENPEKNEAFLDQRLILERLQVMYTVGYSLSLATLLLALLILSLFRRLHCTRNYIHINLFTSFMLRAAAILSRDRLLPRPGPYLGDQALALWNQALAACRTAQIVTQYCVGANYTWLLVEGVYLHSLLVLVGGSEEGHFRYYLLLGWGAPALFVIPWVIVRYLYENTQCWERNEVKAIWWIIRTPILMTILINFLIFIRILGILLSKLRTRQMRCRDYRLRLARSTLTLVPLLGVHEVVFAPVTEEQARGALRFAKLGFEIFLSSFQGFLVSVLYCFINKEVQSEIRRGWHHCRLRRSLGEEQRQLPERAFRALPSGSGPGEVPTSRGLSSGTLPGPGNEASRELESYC

GIP receptor [3] = target: T2, GIP receptor; assay: PathHunter β-arrestin assay, GIP receptor; design: host or cells: PathHunter CHO-K1 GIPR β-Arrestin Cell Line; conditions: β-arrestin-2 recruitment, PathHunter CHO-K1 GIPR β-Arrestin Cell Line, 90 min at 37° C.; normalized to GIP; read-out: GIPR β Arrestin EC50
GLP-1 receptor [4] = target: T1, GLP-1 receptor; assay: HitHunter cAMP assay, GLP-1 receptor; conditions: for EC50: CHO cells stably expressing human GLP-1 receptor, cAMP accumulation, 30 min, read-out: EC50 GLP-1R; for Emax: CHO cells, cAMP, normalized to maximum signal from GLP-1 (high) and DMSO (low), read-out: Emax GLP-1R

T1 sequence (P43220 24-463): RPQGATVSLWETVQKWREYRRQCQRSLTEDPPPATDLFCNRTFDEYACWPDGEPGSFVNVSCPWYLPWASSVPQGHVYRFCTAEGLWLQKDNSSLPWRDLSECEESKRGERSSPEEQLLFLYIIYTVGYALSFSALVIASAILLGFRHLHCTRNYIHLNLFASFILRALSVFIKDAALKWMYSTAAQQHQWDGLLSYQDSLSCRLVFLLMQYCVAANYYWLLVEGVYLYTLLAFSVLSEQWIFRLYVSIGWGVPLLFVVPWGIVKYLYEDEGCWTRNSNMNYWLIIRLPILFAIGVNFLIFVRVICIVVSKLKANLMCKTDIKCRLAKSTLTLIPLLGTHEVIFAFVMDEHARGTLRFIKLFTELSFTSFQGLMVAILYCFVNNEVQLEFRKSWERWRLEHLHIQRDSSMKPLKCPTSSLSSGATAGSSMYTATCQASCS

Structure (SMILES) | EC50 (GLP-1 receptor [1]) | EC50 (GIP receptor [2]) | Emax (GIP receptor [2]) | EC50 (GIP receptor [3]) | EC50 (GLP-1 receptor [4]) | Emax (GLP-1 receptor [4])
CC[C@H](C)[C@H](NC(=O)[C@H](CO)NC(=O)[C@H](Cc1ccc(O)cc1)NC(=O)[C@H](CC(=O)O)NC(=O)[C@H](CO)NC(=O)[C@@H](NC(=O)[C@H](Cc1ccccc1)NC(=O)[C@@H](NC(=O)CNC(=O)[C@H](CCC(=O)O)NC(=O)CCNC(=O)C(C)(C)c1cc(F)cc(C#N)c1)[C@@H](C)O)[C@@H](C)O)C(=O)N[C@@H](Cc1ccc(O)cc1)C(=O)N[C@@H](CC(C)C)C(=O)N[C@@H](CC(=O)O)C(=O)N[C@@H](CCCCN)C(=O)N[C@@H](CCCCNC(=O)COCCOCCNC(=O)COCCOCCNC(=O)CC[C@H](NC(=O)CCCCCCCCCCCCCCCCCCC(=O)O)C(=O)O)C(=O)N[C@@H](C)C(=O)N[C@@H](C)C(=O)NC(C)(C)C(=O)N[C@@H](CCC(=O)O)C(=O)N[C@@H](Cc1ccccc1)C(=O)N[C@H](C(=O)N[C@@H](CC(N)=O)C(=O)N[C@@H](Cc1c[nH]c2ccccc12)C(=O)N[C@@H](CC(C)C)C(=O)N[C@@H](CC(C)C)C(=O)N[C@@H](C)C(=O)NCC(=O)NCC(=O)N1CCC[C@H]1C(=O)N[C@@H](CO)C(=O)N[C@@H](CO)C(=O)NCC(=O)N[C@@H](C)C(=O)N1CCC[C@H]1C(=O)N1CCC[C@H]1C(=O)N1CCC[C@H]1C(=O)N[C@@H](CO)C(N)=O)C(C)C [Compound 114] ({Isobutyryl(2-(3-CN-5-F-Ph))-βAla}-EGTFTSDYSIYLDKK([AEEA-AEEA-γGlu-C20 diacid])AA[Aib]EFVNWLLAGGPSSGAPPPS-NH2) | > 1000 nM | 10 to 100 nM | 95% | > 1000 nM | 0.1 to 1 nM | 114%
CC[C@H](C)[C@H](NC(=O)[C@H](CC(C)C)NC(=O)[C@H](Cc1c[nH]c2ccccc12)NC(=O)[C@H](CCC(N)=O)NC(=O)[C@@H](NC(=O)[C@H](Cc1ccccc1)NC(=O)[C@H](C)NC(=O)[C@H](CCCCNC(=O)COCCOCCNC(=O)COCCOCCNC(=O)CC[C@H](NC(=O)CCCCCCCCCCCCCCCCCCC(=O)O)C(=O)O)NC(=O)[C@H](CCC(N)=O)NC(=O)[C@H](C)NC(=O)[C@@H](NC(=O)[C@H](CCCCN)NC(=O)[C@H](CC(=O)O)NC(=O)[C@H](CC(C)C)NC(=O)C(C)(C)NC(=O)[C@@H](NC(=O)[C@H](CO)NC(=O)[C@H](Cc1ccc(O)cc1)NC(=O)[C@H](CC(=O)O)NC(=O)[C@H](CO)NC(=O)[C@@H](NC(=O)[C@H](Cc1ccccc1)NC(=O)[C@@H](NC(=O)CNC(=O)C[C@H](CC(=O)O)NC(=O)CCNC(=O)C(C)(C)c1cc(F)cc(C#N)c1)[C@@H](C)O)[C@@H](C)O)[C@@H](C)CC)[C@@H](C)CC)C(C)C)C(=O)N[C@@H](C)C(=O)NCC(=O)NCC(=O)N1CCC[C@H]1C(=O)N[C@@H](CO)C(=O)N[C@@H](CO)C(=O)NCC(=O)N[C@@H](C)C(=O)N1CCC[C@H]1C(=O)N1CCC[C@H]1C(=O)N1CCC[C@H]1C(=O)N[C@@H](CO)C(N)=O [Compound 115] ({Isobutyryl(2-(3-CN-5-F-Ph))-βAla}-[β3hD]GTFTSDYSI[Aib]LDKIAQK([AEEA-AEEA-γGlu-C20 diacid])AFVQWLIAGGPSSGAPPPS-NH2) | > 1000 nM | 100 to 1000 nM | 111% | > 1000 nM | 1 to 10 nM | 120%
CC[C@H](C)[C@H](NC(=O)[C@H](CC(C)C)NC(=O)[C@H](Cc1c[nH]c2ccccc12)NC(=O)[C@H](CCC(N)=O)NC(=O)[C@@H](NC(=O)[C@H](Cc1ccccc1)NC(=O)[C@H](C)NC(=O)[C@H](CCCCNC(=O)COCCOCCNC(=O)COCCOCCNC(=O)CC[C@H](NC(=O)CCCCCCCCCCCCCCCCCCC(=O)O)C(=O)O)NC(=O)[C@H](CCC(N)=O)NC(=O)[C@H](C)NC(=O)[C@@H](NC(=O)[C@H](CCCCN)NC(=O)[C@H](CC(=O)O)NC(=O)[C@H](CC(C)C)NC(=O)C(C)(C)NC(=O)[C@@H](NC(=O)[C@H](CO)NC(=O)[C@H](Cc1ccc(O)cc1)NC(=O)[C@H](CC(=O)O)NC(=O)[C@H](CO)NC(=O)[C@@H](NC(=O)[C@H](Cc1ccccc1)NC(=O)[C@@H](NC(=O)CNC(=O)C[C@H](CCC(=O)O)NC(=O)CCNC(=O)C(C)(C)c1cc(F)cc(C#N)c1)[C@@H](C)O)[C@@H](C)O)[C@@H](C)CC)[C@@H](C)CC)C(C)C)C(=O)N[C@@H](C)C(=O)NCC(=O)NCC(=O)N1CCC[C@H]1C(=O)N[C@@H](CO)C(=O)N[C@@H](CO)C(=O)NCC(=O)N[C@@H](C)C(=O)N1CCC[C@H]1C(=O)N1CCC[C@H]1C(=O)N1CCC[C@H]1C(=O)N[C@@H](CO)C(N)=O [Compound 116] ({Isobutyryl(2-(3-CN-5-F-Ph))-βAla}-[β3hE]GTFTSDYSI[Aib]LDKIAQK([AEEA-AEEA-γGlu-C20 diacid])AFVQWLIAGGPSSGAPPPS-NH2) | > 1000 nM | 100 to 1000 nM | 66% | > 1000 nM | 10 to 100 nM | 94%
CC[C@H](C)[C@H](NC(=O)[C@H](CC(C)C)NC(=O)[C@H](Cc1c[nH]c2ccccc12)NC(=O)[C@H](CCC(N)=O)NC(=O)[C@@H](NC(=O)[C@H](Cc1ccccc1)NC(=O)[C@H](C)NC(=O)[C@H](CCCCNC(=O)COCCOCCNC(=O)COCCOCCNC(=O)CC[C@H](NC(=O)CCCCCCCCCCCCCCCCCCC(=O)O)C(=O)O)NC(=O)[C@H](CCC(N)=O)NC(=O)[C@H](C)NC(=O)[C@@H](NC(=O)[C@H](CCCCN)NC(=O)[C@H](CC(=O)O)NC(=O)[C@H](CC(C)C)NC(=O)C(C)(C)NC(=O)[C@@H](NC(=O)[C@H](CO)NC(=O)[C@H](Cc1ccc(O)cc1)NC(=O)[C@H](CC(=O)O)NC(=O)[C@H](CO)NC(=O)[C@@H](NC(=O)[C@H](Cc1ccccc1)NC(=O)[C@@H](NC(=O)CNC(=O)[C@H](CCC(=O)O)NC(=O)CCNC(=O)C(C)(C)c1cc(O)cc(F)c1)[C@@H](C)O)[C@@H](C)O)[C@@H](C)CC)[C@@H](C)CC)C(C)C)C(=O)N[C@@H](C)C(=O)NCC(=O)NCC(=O)N1CCC[C@H]1C(=O)N[C@@H](CO)C(=O)N[C@@H](CO)C(=O)NCC(=O)N[C@@H](C)C(=O)N1CCC[C@H]1C(=O)N1CCC[C@H]1C(=O)N1CCC[C@H]1C(=O)N[C@@H](CO)C(N)=O [Compound 117] ({X38-βAla}-EGTFTSDYSI[Aib]LDKIAQK([AEEA-AEEA-γGlu-C20 diacid])AFVQWLIAGGPSSGAPPPS-NH2) | > 1000 nM | 1 to 10 nM | 100% | > 1000 nM | 0.1 to 1 nM | 96%
CC[C@H](C)[C@H](NC(=O)[C@H](CC(C)C)NC(=O)[C@H](Cc1c[nH]c2ccccc12)NC(=O)[C@H](CCC(N)=O)NC(=O)[C@@H](NC(=O)[C@H](Cc1ccccc1)NC(=O)[C@H](C)NC(=O)[C@H](CCCCNC(=O)COCCOCCNC(=O)COCCOCCNC(=O)CC[C@H](NC(=O)CCCCCCCCCCCCCCCCCCC(=O)O)C(=O)O)NC(=O)[C@H](CCC(N)=O)NC(=O)[C@H](C)NC(=O)[C@@H](NC(=O)[C@H](CCCCN)NC(=O)[C@H](CC(=O)O)NC(=O)[C@H](CC(C)C)NC(=O)C(C)(C)NC(=O)[C@@H](NC(=O)[C@H](CO)NC(=O)[C@H](Cc1ccc(O)cc1)NC(=O)[C@H](CC(=O)O)NC(=O)[C@H](CO)NC(=O)[C@@H](NC(=O)[C@H](Cc1ccccc1)NC(=O)[C@@H](NC(=O)CNC(=O)[C@H](CCC(=O)O)NC(=O)CCNC(=O)C(C)(C)c1cc(F)cc(OC)c1)[C@@H](C)O)[C@@H](C)O)[C@@H](C)CC)[C@@H](C)CC)C(C)C)C(=O)N[C@@H](C)C(=O)NCC(=O)NCC(=O)N1CCC[C@H]1C(=O)N[C@@H](CO)C(=O)N[C@@H](CO)C(=O)NCC(=O)N[C@@H](C)C(=O)N1CCC[C@H]1C(=O)N1CCC[C@H]1C(=O)N1CCC[C@H]1C(=O)N[C@@H](CO)C(N)=O [Compound 118] ({X71-βAla}-EGTFTSDYSI[Aib]LDKIAQK([AEEA-AEEA-γGlu-C20 diacid])AFVQWLIAGGPSSGAPPPS-NH2) | > 1000 nM | 10 to 100 nM | 105% | > 1000 nM | 1 to 10 nM | 103%
